Measurements as given in PMC7226839, “Modulation of STAT3 Signaling, Cell Redox Defenses and Cell Cycle Checkpoints by β-Caryophyllene in Cholangiocarcinoma Cells: Possible Mechanisms Accounting for Doxorubicin Chemosensitization and Chemoprevention” (Cells, 2020).
Structures can show the parent of a compound that is named as a salt.

Assays:
[1] = tested on: H69 noncancerous cholangiocytes; assay: MTT cytotoxicity and combination assay; format: cell-based; settings: for IC50: combination with 50 µM β-caryophyllene; for cytotoxicity: H69, 100 μM
Procedure: To perform the assay, the cells were grown for 24 h into 96-well microplates (2 × 10^4 cells/well), then treated with the test substances and incubated according to the applied protocol schedule [26]. At the end of incubation, the cytotoxicity was measured by the 3-[4,5-dimethylthiazol-2-yl] -2,5-diphenyl tetrazolium bromide (MTT) assay, using an Epoch Microplate Spectrophotometer (BioTek, AHSI, Milan Italy). At least three biologic replicates, in which each concentration was tested in triplicate, were made. Comparing the number of viable cells in each treatment respect to the vehicle control allows to measure a cell viability reduction. The effect of the treatment was considered as cytotoxic when at least a 30% lowering of cell viability occurred [59].
In the single long-term schedule, confluence cells were exposed to the test substances for 24 h and 72 h (Figure S1), then the cytotoxicity was measured by the MTT assay. Under the metronomic treatment, the cells were subjected to a short and/or repeated exposure of 2 h to the test substances (Figure S2), as follow: 1) single treatment, the cells were treated for 2 h, then washed and incubated for 72 h; 2) two-repeated treatments, the cells were exposed to the test substances for 2 h, then washed and incubated for functional recovery for further 2 h. After recovering, the cells were further treated with the test substances for 2 h, washed and incubated for 72 h. Finally, the cytotoxicity was measured by the MTT assay as described above.
RR represents the cytotoxicity enhancement ratio and allows to quantify the efficacy increase of a drug (A) in the presence of a chemosensitizing agent (B), by relating the IC50 of A alone (CA) and that of IC50 of its combination with B (CA+B).

[2] = tested on: Mz-ChA-1 cholangiocarcinoma cells; assay: Annexin-V-Cy3/CFDA flow cytometry (apoptotic and viable cells); format: cell-based, human; settings: for inhibition of viable cells (CF fluorescence): Mz-ChA-1, 2 h and 24 h, maximum
Procedure: (§1) Apoptosis extent was evaluated by Annexin-V staining (Annexin V Apoptosis detection kit, Santa Cruz Biotechnology, DBA, Milan, Italy), which is known to specifically binds phosphatidylserine, a […] which is normally embedded in the inner leaflet of plasma membrane and externalized during apoptosis, as a result of the membrane changes. Therefore, apoptotic cells can be directly detected through their staining with the fluorochrome-conjugated Annexin V. The analysis was performed by both fluorescence microscopy and flow cytometry in order to both visualize the event and to achieve a quick and accurate quantification of apoptotic cells.
(§2) For flow cytometry analysis, the cells (1 × 10^6 cells) were grown in 6-well plates, treated with β-caryophyllene (50 µM) and doxorubicin (20 µM), alone and in combination for the required time exposure, then collected by trypsinization and resuspended in PBS in the presence of the fluorochrome Annexin-V-Cy3 (4 μg/mL in cell suspension). In order to detect viable cells, the nonfluorescent probe carboxyfluorescein diacetate (CFDA; 2 μg/mL in cell suspension), hydrolyzed in living cells by esterases to its fluorescent carboxyfluorescein metabolite (CF), was included too. For each sample, the mean fluorescence of Annexin-V-Cy3 (excitation/emission at 543/570 nm, respectively) and CF (excitation/emission at 492/514 nm, respectively) in 50,000 cells was measured using a BD Accuri^TM C6 flow cytometer, FL-2 and FL-1 channels respectively (BD Biosciences, Milan, Italy). Although standard flow cytometry apoptosis assays use Annexin V-FITC, we chosen the conjugate with Cy3 in order to avoid the overlapping in the excitation wavelength of annexin V-FITC and CF, which could interfere with the analysis. Cells undergoing apoptosis were also sorted by their typical forward- and side scatter (FSC-SSC) pattern, i.e., increased SSC and decreased FSC, respect to the viable cells. Multiparameter analysis and gating of forward and side scatter as well as fluorescence detection were performed using a BD Accuri^TM C6 Software version 1.0.264.21 (BD Biosciences, Milan, Italy).

[3] = tested on: H69 noncancerous cholangiocytes; assay: as above; format: cell-based; settings: for inhibition of viable cells (CF fluorescence): H69, 2 h and 24 h, maximum
Procedure: as §1, §2

[4] = H69, double repeated 2 h exposure + 72 h recovery
[5] = H69, single 2 h exposure + 72 h recovery

COc1cccc2c1C(=O)c1c(O)c3c(c(O)c1C2=O)C[C@@](O)(C(=O)CO)C[C@@H]3O[C@H]1C[C@H](N)[C@H](O)[C@H](C)O1 [Doxorubicin, doxorubicin hydrochloride]
IC50 ([1]; 24 h, H69, 24 h exposure): 13.6 µM
IC50 ([1]; 72 h, H69, 72 h exposure): 4 µM
IC50 reduction, double short exposure compared the single one ([1]; H69): 1.5 fold
cytotoxicity lowering, double repeated metronomic vs 24 h exposure (IC50) ([1]; H69): ~3 fold
cytotoxicity lowering, single metronomic vs 24 h exposure (IC50) ([1]; H69): ~7 fold
fold more toxic after 72 h with respect to 24 h (IC50 comparison) ([1]; H69): about 3 fold
inhibition of cell viability ([1]; H69, 10 µM, 24 h): about 40%
fold more toxic than the 24 h protocol ([1]; H69, 10 µM, 72 h): 2 fold
maximal cytotoxicity ([1]; H69, 10 µM, 72 h): about 80%
cytotoxicity ([1]; double repeated 2 h exposure): ~70%
cytotoxicity ([1]; single 2 h exposure): about 60%
maximum inhibition of cell viability ([1]; H69, 200 µM, 24 h): about 80%
IC50 [1, 4]: 54.4 µM
fold safer than the long-term exposures of 72 h ([1]; H69, metronomic schedules): about 100 fold
nontoxic up to (concentration) ([1]; H69, metronomic schedules): up to 20 μM
IC50 [1, 5]: 81.8 µM
inhibition of viable cells (CF fluorescence) [2]: up to 1.5 fold
increase of apoptotic rate vs the basal rate in the control ([2]; Mz-ChA-1, 24 h): ~3 fold
inhibition of viable cells (CF fluorescence) [3]: ≤ 1.4 fold
increase of apoptotic rate ([3]; H69, 24 h, doxorubicin 20 µM): ~1.5 fold

C=C1CC/C=C(\C)CC[C@@H]2[C@@H]1CC2(C)C [β-Caryophyllene, β-caryophyllene]
IC50 ([1]; 24 h, H69, 24 h exposure): 148 µM
IC50 ([1]; 72 h, H69, 72 h exposure): 146 µM
maximum cytotoxicity increase, long-term compared metronomic treatments (IC50) ([1]; H69): about 1.2 fold
reduction of cell viability ([1]; H69, 50 μM): lower than 20%
inhibition of cell viability vs. control ([1]; H69, 125 μM, 24 h and 72 h): about 40%
effect on cell proliferation ([1]; H69, 125 μM, metronomic schedules): without affecting cell proliferation
IC50 [1, 4]: 161 µM
IC50 [1, 5]: 177 µM
inhibition of viable cells (CF fluorescence) [2]: about 1.2 fold
effect on basal apoptosis (annexin-V-Cy3) ([2]; Mz-ChA-1, β-caryophyllene 50 µM): did not affected the basal apoptosis
inhibition of viable cells (CF fluorescence) [3]: about 1.2 fold
lowering of basal apoptosis (annexin-V-Cy3) ([3]; H69, both time exposures, β-caryophyllene 50 µM): 1.2 fold
